For this assay, the target named is T1, KDM4A (Homo sapiens, UniProt O75164).
T1 construct: Full length; host or cells: U2OS
T1 sequence (O75164 1-1064): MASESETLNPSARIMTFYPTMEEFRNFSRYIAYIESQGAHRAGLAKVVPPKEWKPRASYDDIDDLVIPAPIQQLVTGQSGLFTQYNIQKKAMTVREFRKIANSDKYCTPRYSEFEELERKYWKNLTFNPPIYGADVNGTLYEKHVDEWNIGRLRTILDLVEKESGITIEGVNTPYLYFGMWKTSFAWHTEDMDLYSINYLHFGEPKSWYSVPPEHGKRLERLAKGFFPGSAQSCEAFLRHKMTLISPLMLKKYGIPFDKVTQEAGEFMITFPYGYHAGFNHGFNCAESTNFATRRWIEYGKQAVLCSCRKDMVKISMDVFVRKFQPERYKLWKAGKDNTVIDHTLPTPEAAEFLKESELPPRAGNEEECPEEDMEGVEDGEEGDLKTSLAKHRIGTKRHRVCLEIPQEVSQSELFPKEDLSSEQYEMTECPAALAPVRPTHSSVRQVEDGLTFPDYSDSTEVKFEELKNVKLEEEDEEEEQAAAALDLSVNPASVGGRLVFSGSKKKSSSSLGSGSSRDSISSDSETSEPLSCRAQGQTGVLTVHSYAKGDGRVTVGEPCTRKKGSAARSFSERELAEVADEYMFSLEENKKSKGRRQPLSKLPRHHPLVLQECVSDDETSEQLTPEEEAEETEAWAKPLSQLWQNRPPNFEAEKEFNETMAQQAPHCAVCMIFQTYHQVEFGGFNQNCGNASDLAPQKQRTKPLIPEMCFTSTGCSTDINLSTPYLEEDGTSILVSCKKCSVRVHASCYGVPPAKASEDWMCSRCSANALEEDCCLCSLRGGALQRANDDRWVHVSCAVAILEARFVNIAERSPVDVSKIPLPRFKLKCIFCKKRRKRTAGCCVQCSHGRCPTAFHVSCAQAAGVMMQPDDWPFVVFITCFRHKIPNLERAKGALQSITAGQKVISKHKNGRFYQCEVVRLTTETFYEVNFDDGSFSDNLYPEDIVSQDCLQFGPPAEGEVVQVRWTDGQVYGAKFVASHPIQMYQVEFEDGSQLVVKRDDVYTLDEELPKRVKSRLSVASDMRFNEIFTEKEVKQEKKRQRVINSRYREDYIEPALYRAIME
Briefly: Histone lysine demethylase immunofluorescence assay, U2OS cells transfected with KDM4A. Particulars: U2OS cells transfected with pCMVHA KDM4A; mark detected H3K9me3; 20 hours. Format: cell-based. As for the experimental part:
U2OS cells were seeded 24 hours before transfection. Transfection was performed with Fugene HD transfection reagent as recommended by the manufacturer. 6 hours after transfection, the cells were harvested and seeded into multi well plates into media containing compound. The media used was DMEM containing 10% FBS and pen/strep. 20 hours after incubation of cells with compounds, the cells were washed in PBS, harvested by fixation with formaldehyde 4% aqueous solution, and washed in PBS. Subsequently, the cells were permeabilized in PBS with 0.2% Triton X-100 for. Blocking was performed in PBS with 0.2% Triton X-100 and 5% FBS. The cells were incubated with primary antibodies in blocking solution over night at 4° C. The primary antibodies used in the assays were HA.11 (Covance, MMS-101P) and the antibody detecting the mark specified in the table below. After incubation with primary antibodies, the cells were washed with PBS, incubated with secondary antibodies (Alexa fluor 594 goat anti rabbit IgG, Invitrogen, A11012; Alexa flour 488 donkey anti mouse IgG, Invitrogen, A21202) and Hoechst, (Sigma, 33342) in blocking solution, and washed again with PBS. Finally, PBS was added and high throughput imaging and analysis were performed by an IN Cell Analyzer 1000 (GE Healthcare). The robot software analyzed individual cells and divided these into HA+ (transfected cells) and HA− (non-transfected cells). The IC50 values were based on an average measure of the staining of the mark specified in the table below in the transfected cells.

SMILES strings stand for the structures.

Turning to `COc1ccccc1CN1CCC(NC(=O)CNCc2cc(CNC3CC3)ccn2)CC1` [Compound 20, 2-[({4-[(cyclopropylamino)-methyl]pyridin-2-yl}methyl)amino]-N-{1-[(2-methoxyphenyl)methyl]-piperidin-4-yl}acetamide], the IC50 was greater than 2500 nM.

`O=Cc1ccnc(CNCCCCN(Cc2ccccc2)C2CC2)c1` [Compound 109, 2-[({4-[benzyl-(cyclopropyl)amino]-butyl}amino)methyl]-pyridine-4-carbaldehyde] registered an IC50 greater than 2500 nM.

Usually IC50 stands for the concentration that gives 50% inhibition. Read a high IC50 as a need for much substance.
